Experimental data as given in ChEMBL document CHEMBL3885861, “Open TG-GATES”.

Organism: Rattus norvegicus
Experiment: Open TG-GATES - Regimen: Daily Repeat
Assay type: toxicity, organism-based, Sprague-Dawley
Design: regimen Daily Repeat, gender Male, age 6 weeks
Conditions: in vivo, po, route gavage; for Eos / Fbg / Ht / Lym / MCHC / MCV / Mono / Neu / RBC / Ret / WBC / APTT / Bas / PT / Hb: tissue Blood; for KIDNEY_L / KIDNEY_R / KIDNEY_TOTAL: tissue Kidney; for ALP / ALT / AST / BUN / CRE / Ca / Cl / DBIL / GLC / IP / K / PL / RALB / TBIL / TC / TG / TP / gamma-GTP: tissue Plasma
[1] = 60 mg/kg, 72 h, dose level Middle, time 3 day
[2] = 60 mg/kg, […], dose level Middle, time 7 day
[3] = 60 mg/kg, […], dose level Middle, time 14 day
[4] = 60 mg/kg, […], dose level Middle, time 28 day
[5] = 200 mg/kg, 72 h, dose level High, time 3 day
[6] = 200 mg/kg, […], dose level High, time 7 day
[7] = 200 mg/kg, […], dose level High, time 14 day
[8] = 200 mg/kg, […], dose level High, time 28 day

CCCCC1C(=O)N(c2ccccc2)N(c2ccccc2)C1=O [PHENYLBUTAZONE]
Eos [1]: 1.2%
Fbg [1]: 234.2 mg/dL
Ht [1]: 42.3%
Lym [1]: 76.2%
MCHC [1]: 33.5%
MCV [1]: 63.4 fL
Mono [1]: 6.4%
Neu [1]: 16.4%
RBC [1]: 667.4 x10_4/ul
Ret [1]: 6.7%
WBC [1]: 119.1 x10_2/uL
KIDNEY_L [1]: 1 g
KIDNEY_R [1]: 1 g
KIDNEY_TOTAL [1]: 2 g
ALP [1]: 957.4 IU/L
ALT [1]: 35.6 IU/L
AST [1]: 57.6 IU/L
BUN [1]: 18.4 mg/dL
CRE [1]: 0.6 mg/dL
Ca [1]: 10.5 mg/dL
Cl [1]: 105.6 meq/L
DBIL [1]: 0.006 mg/dL
GLC [1]: 199.4 mg/dL
IP [1]: 7.9 mg/dL
K [1]: 4.7 meq/L
PL [1]: 167.6 mg/dL
RALB [1]: 4 g/dL
TBIL [1]: 0.3 mg/dL
TC [1]: 92 mg/dL
TG [1]: 136.8 mg/dL
TP [1]: 6.1 g/dL
gamma-GTP [1]: 1 IU/L
TERMINAL_BW [2]: 272.5 g
TERMINAL_BW [3]: 313.9 g
TERMINAL_BW [4]: 407.1 g
APTT [2]: 16.2 s
Bas [2]: 0%
Eos [2]: 0.4%
Fbg [2]: 231 mg/dL
Ht [2]: 42.2%
Lym [2]: 86.2%
MCHC [2]: 33.6%
MCV [2]: 64.2 fL
Mono [2]: 4.2%
Neu [2]: 9%
PT [2]: 11.7 s
RBC [2]: 657.4 x10_4/ul
Ret [2]: 5.4%
WBC [2]: 186.6 x10_2/uL
APTT [3]: 16.5 s
Bas [3]: 0%
Eos [3]: 0.6%
Fbg [3]: 227.6 mg/dL
Hb [3]: 14.9 g/dL
Ht [3]: 44.5%
Lym [3]: 86%
MCHC [3]: 33.5%
MCV [3]: 60.4 fL
Mono [3]: 4%
Neu [3]: 9.4%
RBC [3]: 736.4 x10_4/ul
Ret [3]: 4.4%
WBC [3]: 167.1 x10_2/uL
APTT [4]: 15.9 s
Bas [4]: 0%
Eos [4]: 0.6%
Fbg [4]: 246.5 mg/dL
Hb [4]: 15.3 g/dL
Ht [4]: 45.9%
Lym [4]: 86%
MCHC [4]: 33.4%
MCV [4]: 58.4 fL
Mono [4]: 3%
RBC [4]: 786.6 x10_4/ul
Ret [4]: 2.6%
WBC [4]: 129.4 x10_2/uL
KIDNEY_L [2]: 1.1 g
KIDNEY_R [2]: 1.1 g
KIDNEY_TOTAL [2]: 2.2 g
KIDNEY_L [3]: 1.3 g
KIDNEY_R [3]: 1.3 g
KIDNEY_TOTAL [3]: 2.6 g
KIDNEY_L [4]: 1.4 g
KIDNEY_R [4]: 1.4 g
KIDNEY_TOTAL [4]: 2.9 g
ALP [2]: 845.8 IU/L
ALT [2]: 37.4 IU/L
AST [2]: 65 IU/L
BUN [2]: 20.8 mg/dL
CRE [2]: 0.5 mg/dL
Ca [2]: 10.7 mg/dL
Cl [2]: 106.6 meq/L
DBIL [2]: 0 mg/dL
GLC [2]: 195.8 mg/dL
IP [2]: 8.5 mg/dL
K [2]: 5 meq/L
PL [2]: 161 mg/dL
RALB [2]: 4 g/dL
TBIL [2]: 0.3 mg/dL
TC [2]: 79 mg/dL
TG [2]: 166.8 mg/dL
TP [2]: 6.7 g/dL
gamma-GTP [2]: 1.4 IU/L
ALP [3]: 877.8 IU/L
ALT [3]: 36.4 IU/L
AST [3]: 65 IU/L
BUN [3]: 20.8 mg/dL
CRE [3]: 0.6 mg/dL
Ca [3]: 10.6 mg/dL
Cl [3]: 107 meq/L
DBIL [3]: 0.002 mg/dL
GLC [3]: 189.4 mg/dL
IP [3]: 8.3 mg/dL
K [3]: 4.5 meq/L
RALB [3]: 4 g/dL
TBIL [3]: 0.3 mg/dL
TC [3]: 64 mg/dL
TG [3]: 138 mg/dL
TP [3]: 6.3 g/dL
gamma-GTP [3]: 1.8 IU/L
ALP [4]: 605.8 IU/L
ALT [4]: 44.2 IU/L
AST [4]: 70.8 IU/L
BUN [4]: 22.2 mg/dL
CRE [4]: 0.6 mg/dL
Ca [4]: 10.7 mg/dL
Cl [4]: 105.2 meq/L
DBIL [4]: 0.006 mg/dL
GLC [4]: 189.8 mg/dL
IP [4]: 7.7 mg/dL
K [4]: 4.6 meq/L
PL [4]: 161.8 mg/dL
RALB [4]: 4.3 g/dL
TBIL [4]: 0.4 mg/dL
TC [4]: 76.4 mg/dL
TG [4]: 280.8 mg/dL
TP [4]: 6.8 g/dL
gamma-GTP [4]: 1.2 IU/L
TERMINAL_BW [5]: 224.8 g
APTT [5]: 17.7 s
Bas [5]: 0%
Eos [5]: 1%
Fbg [5]: 309.8 mg/dL
Hb [5]: 12.5 g/dL
Ht [5]: 37.3%
Lym [5]: 74.4%
MCHC [5]: 33.5%
MCV [5]: 63.9 fL
Mono [5]: 9.4%
Neu [5]: 15.8%
PT [5]: 11.7 s
RBC [5]: 586.8 x10_4/ul
Ret [5]: 8.1%
WBC [5]: 200.4 x10_2/uL
KIDNEY_L [5]: 1.1 g
KIDNEY_R [5]: 1.1 g
KIDNEY_TOTAL [5]: 2.2 g
ALP [5]: 627.8 IU/L
ALT [5]: 27 IU/L
AST [5]: 55.2 IU/L
BUN [5]: 20.4 mg/dL
CRE [5]: 0.6 mg/dL
Ca [5]: 10.2 mg/dL
Cl [5]: 106 meq/L
DBIL [5]: 0 mg/dL
GLC [5]: 189.2 mg/dL
IP [5]: 7 mg/dL
K [5]: 5.1 meq/L
RALB [5]: 3.3 g/dL
TBIL [5]: 0.2 mg/dL
TC [5]: 81.8 mg/dL
TG [5]: 168.6 mg/dL
TP [5]: 5.8 g/dL
gamma-GTP [5]: 2.2 IU/L
TERMINAL_BW [6]: 254.1 g
TERMINAL_BW [7]: 296 g
TERMINAL_BW [8]: 348.8 g
APTT [6]: 17.1 s
Bas [6]: 0%
Eos [6]: 1%
Fbg [6]: 250 mg/dL
Hb [6]: 13.4 g/dL
Ht [6]: 40.3%
Lym [6]: 77%
MCHC [6]: 33.4%
MCV [6]: 63.9 fL
Mono [6]: 4.6%
Neu [6]: 17.6%
PT [6]: 11.7 s
RBC [6]: 631.8 x10_4/ul
Ret [6]: 7.4%
WBC [6]: 199.8 x10_2/uL
APTT [7]: 17.5 s
Bas [7]: 0%
Eos [7]: 0.4%
Fbg [7]: 257.2 mg/dL
Hb [7]: 13.8 g/dL
Ht [7]: 41.2%
Lym [7]: 78.8%
MCHC [7]: 33.4%
MCV [7]: 59.6 fL
Mono [7]: 4.4%
Neu [7]: 16.2%
RBC [7]: 692.2 x10_4/ul
Ret [7]: 5.8%
WBC [7]: 162.2 x10_2/uL
APTT [8]: 15.6 s
Bas [8]: 0%
Eos [8]: 0.4%
Fbg [8]: 273 mg/dL
Hb [8]: 13.3 g/dL
Ht [8]: 39.7%
Lym [8]: 76%
MCHC [8]: 33.4%
MCV [8]: 58 fL
Mono [8]: 3%
Neu [8]: 20.4%
RBC [8]: 684.8 x10_4/ul
Ret [8]: 6.4%
WBC [8]: 184.3 x10_2/uL
KIDNEY_L [6]: 1.1 g
KIDNEY_R [6]: 1.1 g
KIDNEY_TOTAL [6]: 2.2 g
KIDNEY_L [7]: 1.2 g
KIDNEY_R [7]: 1.2 g
KIDNEY_TOTAL [7]: 2.4 g
KIDNEY_L [8]: 1.4 g
KIDNEY_R [8]: 1.5 g
KIDNEY_TOTAL [8]: 2.9 g
ALP [6]: 763 IU/L
ALT [6]: 32 IU/L
AST [6]: 57.4 IU/L
BUN [6]: 20.2 mg/dL
CRE [6]: 0.6 mg/dL
Ca [6]: 10.7 mg/dL
Cl [6]: 105 meq/L
DBIL [6]: 0 mg/dL
GLC [6]: 201 mg/dL
IP [6]: 8.4 mg/dL
K [6]: 4.8 meq/L
RALB [6]: 3.9 g/dL
TBIL [6]: 0.3 mg/dL
TC [6]: 75.4 mg/dL
TG [6]: 113.8 mg/dL
TP [6]: 6.6 g/dL
gamma-GTP [6]: 2.8 IU/L
ALP [7]: 719.2 IU/L
ALT [7]: 30.4 IU/L
AST [7]: 63 IU/L
BUN [7]: 26.6 mg/dL
CRE [7]: 0.6 mg/dL
Ca [7]: 10.7 mg/dL
Cl [7]: 106.2 meq/L
DBIL [7]: 0.008 mg/dL
GLC [7]: 184.6 mg/dL
IP [7]: 8.4 mg/dL
K [7]: 4.3 meq/L
RALB [7]: 3.9 g/dL
TBIL [7]: 0.4 mg/dL
TC [7]: 69.6 mg/dL
TG [7]: 147.6 mg/dL
TP [7]: 6.4 g/dL
gamma-GTP [7]: 1.2 IU/L
ALP [8]: 413 IU/L
ALT [8]: 28.2 IU/L
AST [8]: 57.2 IU/L
BUN [8]: 24.2 mg/dL
CRE [8]: 0.6 mg/dL
Ca [8]: 10.5 mg/dL
Cl [8]: 106.8 meq/L
DBIL [8]: 0.02 mg/dL
GLC [8]: 174.2 mg/dL
IP [8]: 7.4 mg/dL
K [8]: 4.4 meq/L
RALB [8]: 3.9 g/dL
TBIL [8]: 0.3 mg/dL
TC [8]: 72.2 mg/dL
TG [8]: 166.2 mg/dL
TP [8]: 6.1 g/dL
gamma-GTP [8]: 1.8 IU/L
